Compound in assay [1]: T1, C=CC(=O)Nc1cc2c(Nc3ccc(F)c(Cl)c3)ncnc2cc1OCCCN1CCOCC1 [CANERTINIB]
The assay is described as follows: surviving fraction relative to DMSO-only wells; higher = less growth inhibition. The following applies: exposure time: 5 days. The method in brief: (§1)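 For each tumour cell line, log-phase cells were put into 384-well plates at 250–500 cells per well, then after 24 hours exposed continuously for five days to inhibitors at 0.5, 1, 5, 10, 50, 100, 500 and 1000 nM. Viability was assessed by CellTiter-Glo luminescence, with surviving fraction expressed relative to the median of DMSO-only wells. Lines were screened three times and retained only if replicate Pearson r exceeded 0.7 and median Z' exceeded 0.3.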

Compound in assay [2]: Cn1cc(C2=Nc3cc(NC(=O)C(N)C4CCCCC4)cc4c3C2=CNNC4=O)cn1
The assay is described as above. Conditions: exposure time: 5 days. The method in brief:
as §1

Compound in assay [3]: T1, CANERTINIB
The assay is described as follows: area under dose-response curve of surviving fraction (unscaled, Aref=0) (surviving fraction x log10(nM)); higher = more resistant. Conditions: exposure time: 5 days; dose range 0.5-1000 nM. A digest of the protocol: (§2)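 Three screens per tumour cell line were run in 384-well plates at eight inhibitor concentrations from 0.5 to 1000 nM over five days. Surviving fractions, from CellTiter-Glo luminescence normalised to DMSO-only wells, were fitted with 3-parameter logistic curves in the drc R package. The reported area under the curve is the unscaled activity area. It spans log10 dose, and Aref is 0.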

Compound in another assay: CCCCCCCCCCCCCCCC(=O)Nc1ccn([C@@H]2O[C@H](CO)[C@@H](O)[C@@H]2C#N)c(=O)n1 [SAPACITABINE]
The description is as above. Conditions: exposure time: 5 days; dose range 0.5-1000 nM. The method in brief:
as §2

Compound in another assay: CC[C@@H]1C(=O)N(C)c2cnc(Nc3ccc(C(=O)NC4CCN(C)CC4)cc3OC)nc2N1C1CCCC1 [BI-2536]
The description is as above. The following applies: exposure time: 5 days; dose range 0.5-1000 nM. The method in brief: as §2

Compound in another assay: CNC(=O)c1ccc(N2C(=S)N(c3ccc(C#N)c(C(F)(F)F)c3)C(=O)C2(C)C)cc1F [MDV3100]
The assay is described as above. The following applies: exposure time: 5 days; dose range 0.5-1000 nM. The method in brief:
as §2

This note sets out measurements from the supplement of paper PMC6045584.

± gives the standard deviation of the averaged measurements.

With VCAP PROSTATE, the surviving fraction in the assay with CANERTINIB [1] (0.5 nM) was 0.902 ± 0.036; with CANERTINIB [1] (1 nM), 0.904 ± 0.026; in the assay with CANERTINIB [1] (5 nM) it was 0.954 ± 0.046; with CANERTINIB [1] (10 nM) it was 0.935 ± 0.12; with CANERTINIB [1] (50 nM), 1.19 ± 0.083; in the assay with CANERTINIB [1] (100 nM), 1.17 ± 0.1. Further, the surviving fraction with CANERTINIB [1] (500 nM) came to 0.859 ± 0.09; with CANERTINIB [1] (1000 nM), 0.737 ± 0.037; in assay [2] (0.5 nM) it was 1.04 ± 0.058; in assay [2] (1 nM) it was 1.13 ± 0.12; in assay [2] (5 nM), 1.14 ± 0.033; in assay [2] (10 nM), 1.16 ± 0.081. Besides, the surviving fraction in assay [2] (50 nM) stood at 0.969 ± 0.051; in assay [2] (100 nM) it was 0.97 ± 0.032; in assay [2] (500 nM), 0.254 ± 0.059; in assay [2] (1000 nM) it was 0.113 ± 0.0095. The “area under dose-response curve” value amounted to 3.15 with CANERTINIB [3], 3.11 with SAPACITABINE and 0.516 with BI-2536.

With HCC202 BREAST, the surviving fraction is 0.939 ± 0.12 with CANERTINIB [1] (0.5 nM); 0.93 ± 0.18 with CANERTINIB [1] (1 nM); 0.867 ± 0.21 with CANERTINIB [1] (5 nM); 0.682 ± 0.011 with CANERTINIB [1] (10 nM); 0.602 ± 0.19 with CANERTINIB [1] (50 nM); 0.494 ± 0.053 in the assay with CANERTINIB [1] (100 nM). Also, the surviving fraction was found to be 0.333 ± 0.057 with CANERTINIB [1] (500 nM); 0.177 ± 0.051 in the assay with CANERTINIB [1] (1000 nM); 0.89 ± 0.18 in assay [2] (0.5 nM); 0.775 ± 0.22 in assay [2] (1 nM); 0.967 ± 0.15 in assay [2] (5 nM); 0.838 ± 0.22 in assay [2] (10 nM). The surviving fraction amounted to 0.66 ± 0.27 in assay [2] (50 nM), 0.505 ± 0.18 in assay [2] (100 nM), 0.274 ± 0.049 in assay [2] (500 nM) and 0.341 ± 0.054 in assay [2] (1000 nM). The “area under dose-response curve” value in the assay with BI-2536 was 1.68.

Regarding SJSA1 BONE, the surviving fraction with CANERTINIB [1] (0.5 nM) turned out to be 1.23 ± 0.12; with CANERTINIB [1] (1 nM) it was 1.2 ± 0.07; in the assay with CANERTINIB [1] (5 nM), 1.08 ± 0.15; in the assay with CANERTINIB [1] (10 nM) it was 1.31 ± 0.055; in the assay with CANERTINIB [1] (50 nM), 0.0523 ± 0.0021; with CANERTINIB [1] (100 nM), 1.64 ± 0.052. Besides, the surviving fraction turned out to be 1.66 ± 0.053 with CANERTINIB [1] (500 nM); 1.74 ± 0.12 with CANERTINIB [1] (1000 nM); 1.023 ± 0.0096 in assay [2] (0.5 nM); 0.984 ± 0.02 in assay [2] (1 nM); 1.01 ± 0.061 in assay [2] (5 nM); 1.06 ± 0.036 in assay [2] (10 nM). For the same test system, the surviving fraction stood at 1.03 ± 0.021 in assay [2] (50 nM), 1.006 ± 0.0057 in assay [2] (100 nM), 0.526 ± 0.044 in assay [2] (500 nM) and 0.337 ± 0.018 in assay [2] (1000 nM). For the same test system, the “area under dose-response curve” value with SAPACITABINE was found to be 4.77; with BI-2536 it was 1.58; with MDV3100, 2.71.

For SKBR3 BREAST, the surviving fraction in the assay with CANERTINIB [1] (0.5 nM) worked out at 0.831 ± 0.019; in the assay with CANERTINIB [1] (1 nM) it was 0.79 ± 0.017; with CANERTINIB [1] (5 nM) it was 0.68 ± 0.051; in the assay with CANERTINIB [1] (10 nM), 0.6073 ± 0.0035; with CANERTINIB [1] (50 nM), 0.48 ± 0.025; with CANERTINIB [1] (100 nM), 0.4 ± 0.024. The surviving fraction in the assay with CANERTINIB [1] (500 nM) came to 0.224 ± 0.0067; with CANERTINIB [1] (1000 nM) it was 0.176 ± 0.0098; in assay [2] (0.5 nM) it was 0.927 ± 0.058; in assay [2] (1 nM), 0.948 ± 0.086; in assay [2] (5 nM), 0.989 ± 0.088; in assay [2] (10 nM), 1 ± 0.073. The surviving fraction in assay [2] (50 nM) was found to be 0.736 ± 0.056; in assay [2] (100 nM), 0.459 ± 0.064; in assay [2] (500 nM) it was 0.206 ± 0.011; in assay [2] (1000 nM), 0.224 ± 0.024. Moreover, the “area under dose-response curve” value in the assay with CANERTINIB [3] amounted to 1.75; in the assay with SAPACITABINE, 2.23; with BI-2536, 0.991.

For SG27 HEADNECK, the surviving fraction stood at 1.03 ± 0.15 in the assay with CANERTINIB [1] (0.5 nM); 1.06 ± 0.054 with CANERTINIB [1] (1 nM); 1.03 ± 0.067 with CANERTINIB [1] (5 nM); 0.883 ± 0.1 with CANERTINIB [1] (10 nM); 1.01 ± 0.1 with CANERTINIB [1] (50 nM); 0.999 ± 0.028 with CANERTINIB [1] (100 nM). Moreover, the surviving fraction was determined as 0.96 ± 0.13 in the assay with CANERTINIB [1] (500 nM); 0.894 ± 0.08 with CANERTINIB [1] (1000 nM); 1.11 ± 0.17 in assay [2] (0.5 nM); 0.979 ± 0.096 in assay [2] (1 nM); 0.898 ± 0.059 in assay [2] (5 nM); 1.01 ± 0.022 in assay [2] (10 nM). Besides, the surviving fraction in assay [2] (50 nM) was determined as 0.904 ± 0.12; in assay [2] (100 nM), 0.917 ± 0.18; in assay [2] (500 nM) it was 0.895 ± 0.042; in assay [2] (1000 nM) it was 0.839 ± 0.035. Moreover, the “area under dose-response curve” value with CANERTINIB [3] was 3.27; with BI-2536, 2.97.

As for 143B BONE, the surviving fraction with CANERTINIB [1] (0.5 nM) is 1.05 ± 0.044; in the assay with CANERTINIB [1] (1 nM) it was 1.04 ± 0.057; in the assay with CANERTINIB [1] (5 nM), 1.05 ± 0.038; in the assay with CANERTINIB [1] (10 nM), 1.06 ± 0.061; with CANERTINIB [1] (50 nM), 1.08 ± 0.047; with CANERTINIB [1] (100 nM), 1.07 ± 0.039. Besides, the surviving fraction with CANERTINIB [1] (500 nM) was found to be 1.04 ± 0.067; with CANERTINIB [1] (1000 nM) it was 0.984 ± 0.073; in assay [2] (0.5 nM), 0.981 ± 0.052; in assay [2] (1 nM), 1.01 ± 0.029; in assay [2] (5 nM), 0.992 ± 0.033; in assay [2] (10 nM), 1.0045 ± 0.00071. Further, the surviving fraction in assay [2] (50 nM) amounted to 0.96 ± 0.052; in assay [2] (100 nM) it was 1 ± 0.035; in assay [2] (500 nM), 0.303 ± 0.0042; in assay [2] (1000 nM) it was 0.036 ± 0.0014. The “area under dose-response curve” value with BI-2536 came to 0.815.

On to SG28 HEADNECK, for which the surviving fraction in the assay with CANERTINIB [1] (0.5 nM) is 0.824 ± 0.055; with CANERTINIB [1] (1 nM), 0.803 ± 0.046; with CANERTINIB [1] (5 nM), 0.627 ± 0.081; with CANERTINIB [1] (10 nM), 0.621 ± 0.089; with CANERTINIB [1] (50 nM), 0.642 ± 0.0092; with CANERTINIB [1] (100 nM), 0.498 ± 0.059. The surviving fraction in the assay with CANERTINIB [1] (500 nM) is 0.364 ± 0.073; with CANERTINIB [1] (1000 nM), 0.366 ± 0.021; in assay [2] (0.5 nM) it was 0.971 ± 0.052; in assay [2] (1 nM), 1.04 ± 0.14; in assay [2] (5 nM), 0.991 ± 0.044; in assay [2] (10 nM) it was 1.01 ± 0.047. Further, the surviving fraction in assay [2] (50 nM) worked out at 0.83 ± 0.029; in assay [2] (100 nM) it was 0.661 ± 0.022; in assay [2] (500 nM), 0.427 ± 0.012; in assay [2] (1000 nM), 0.317 ± 0.026. In addition, the “area under dose-response curve” value with BI-2536 came out at 2.69.

Take HMT3552 BREAST: the surviving fraction with CANERTINIB [1] (0.5 nM) was determined as 0.832 ± 0.042; with CANERTINIB [1] (1 nM), 0.838 ± 0.058; in the assay with CANERTINIB [1] (5 nM), 0.804 ± 0.014; with CANERTINIB [1] (10 nM), 0.774 ± 0.029; with CANERTINIB [1] (50 nM) it was 0.828 ± 0.079; with CANERTINIB [1] (100 nM) it was 0.8597 ± 0.0078. The surviving fraction stood at 0.696 ± 0.037 with CANERTINIB [1] (500 nM); 0.604 ± 0.015 with CANERTINIB [1] (1000 nM); 0.92 in assay [2] (0.5 nM); 1.07 in assay [2] (1 nM); 1.02 in assay [2] (5 nM); 0.936 in assay [2] (10 nM). Moreover, the surviving fraction in assay [2] (50 nM) was found to be 0.999; in assay [2] (100 nM) it was 1.03; in assay [2] (500 nM) it was 0.176; in assay [2] (1000 nM), 0.097. Also, the results for the “area under dose-response curve” value in the assay with CANERTINIB [3], with SAPACITABINE and with MDV3100 were 2.58, 2.99 and 3.66, respectively.
